In assay [1] the target is T1, KRas-mediated phosphorylation of ERK in A549 cells (Homo sapiens, UniProt P01116, G12S).
T1 construct: pERK HTRF read-out
Put plainly: Inhibition of KRas-mediated phosphorylation of ERK (HTRF), A549 cells. The class given is cell-based. The settings on record: HTRF pERK, 3 h incubation.

For assay [2], the target named is T2, KRas-mediated phosphorylation of ERK in H358 cells (Homo sapiens, UniProt P01116, G12C).
T2 construct: pERK HTRF read-out
Put plainly: Inhibition of KRas-mediated phosphorylation of ERK (HTRF), H358 cells. It is filed as cell-based. The conditions noted are these: HTRF pERK, 3 h incubation. In general terms: TR-FRET usually uses a lanthanide donor and a delayed reading to cut background.

Assay [3] has as its target T3, KRas-mediated phosphorylation of ERK in MKN1 cells (Homo sapiens, UniProt P01116).
T3 construct: pERK HTRF read-out
Description: Inhibition of KRas-mediated phosphorylation of ERK (HTRF), MKN1 cells. The settings on record: MKN1 cells (KRas WT); HTRF pERK; 3 h incubation. It is filed as cell-based. As to the method:
Inhibition of KRas Phosphorylation of ERK (HTRF) by Exemplary Compounds of Formula (Ia) or (Ib)
Cisbio HTRF Advanced pERK Assay Catalog #64AERPEH • Cells: MKN1, PSN1 • Procedure: • 1. Day 1: Seed 6,000 cells/well −25 μl/well in 384-well white solid bottom plate; RPM1_10% FBS. Incubate overnight at 37 °C/5% CO2. • 2.

Another assay concerns the target T4, KRas G12S (Homo sapiens, UniProt P01116, G12S).
T4 construct: Biotinylated KRas (corresponding to amino acids 1-169, produced at Accelegan Inc.); biotin (biotinylated); purchased Accelegan Inc
Description: KRas binding assay, TR-FRET displacement of Cy5 labelled tracer. The settings on record: 60-minute incubation at room temperature, 1% DMSO, pH 7.5. In outline:
(§1)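 Tb-streptavidin captured biotinylated KRas (1-169) in HEPES 50 mM, DTT 1 mM, MgCl2 5 mM, Tween-20 0.005% (pH 7.5), alongside tracer and compound at 1% final DMSO. One hour at RT, then read; IC50 from 4-parameter POC fit.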

For another assay, the target named is T5, KRas G12C (Homo sapiens, UniProt P01116, G12C).
T5 construct: Biotinylated KRas (corresponding to amino acids 1-169, produced at Accelegan Inc.); biotin (biotinylated); purchased Accelegan Inc
Described as above. The conditions noted are these: 60-minute incubation at room temperature, 1% DMSO, pH 7.5. In outline: as §1

Another assay addresses T6, KRas WT (Homo sapiens, UniProt P01116).
T6 construct: Biotinylated KRas (corresponding to amino acids 1-169, produced at Accelegan Inc.); biotin (biotinylated); purchased Accelegan Inc
The description is as above. The conditions noted are these: 60-minute incubation at room temperature, 1% DMSO, pH 7.5. Put shortly: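 Assay buffer was HEPES (50 mM, pH 7.5) with MgCl2 (5 mM), DTT (1 mM) and Tween-20 (0.005%). Biotinylated KRas spanning residues 1-169 met tracer, terbium streptavidin and compound (1% DMSO, final) for 60 minutes at ambient temperature before reading. POC values were fitted for IC50.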

T2 sequence (P01116 1-188 isoform P01116-2 G12C): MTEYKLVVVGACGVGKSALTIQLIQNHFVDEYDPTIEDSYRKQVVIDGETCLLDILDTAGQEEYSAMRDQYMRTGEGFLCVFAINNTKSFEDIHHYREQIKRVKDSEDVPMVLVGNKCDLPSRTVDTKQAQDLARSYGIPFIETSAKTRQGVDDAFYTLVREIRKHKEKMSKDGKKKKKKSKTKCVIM
T1 sequence (P01116 1-188 isoform P01116-2 G12S): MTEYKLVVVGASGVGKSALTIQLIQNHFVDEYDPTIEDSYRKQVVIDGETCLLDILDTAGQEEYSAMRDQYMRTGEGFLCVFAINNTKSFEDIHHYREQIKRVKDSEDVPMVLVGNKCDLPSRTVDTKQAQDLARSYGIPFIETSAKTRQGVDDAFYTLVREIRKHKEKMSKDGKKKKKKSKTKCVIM
T6 sequence (P01116 1-169 isoform P01116-2): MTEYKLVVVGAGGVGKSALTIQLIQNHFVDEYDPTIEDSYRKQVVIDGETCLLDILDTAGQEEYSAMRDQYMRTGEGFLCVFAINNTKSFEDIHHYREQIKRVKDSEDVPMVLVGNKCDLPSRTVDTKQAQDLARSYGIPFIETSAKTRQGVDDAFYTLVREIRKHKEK
T5 sequence (P01116 1-169 isoform P01116-2 G12C): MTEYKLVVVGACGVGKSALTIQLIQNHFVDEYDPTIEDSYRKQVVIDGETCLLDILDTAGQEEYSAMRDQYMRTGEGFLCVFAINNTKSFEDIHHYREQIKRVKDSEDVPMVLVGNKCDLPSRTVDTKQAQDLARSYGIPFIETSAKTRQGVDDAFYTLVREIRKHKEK
T3 sequence (P01116 1-188 isoform P01116-2): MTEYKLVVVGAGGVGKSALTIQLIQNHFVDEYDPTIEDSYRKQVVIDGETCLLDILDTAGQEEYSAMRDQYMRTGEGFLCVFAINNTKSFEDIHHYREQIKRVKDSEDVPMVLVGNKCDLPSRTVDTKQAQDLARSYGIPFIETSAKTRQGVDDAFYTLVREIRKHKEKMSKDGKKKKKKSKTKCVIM
T4 sequence (P01116 1-169 isoform P01116-2 G12S): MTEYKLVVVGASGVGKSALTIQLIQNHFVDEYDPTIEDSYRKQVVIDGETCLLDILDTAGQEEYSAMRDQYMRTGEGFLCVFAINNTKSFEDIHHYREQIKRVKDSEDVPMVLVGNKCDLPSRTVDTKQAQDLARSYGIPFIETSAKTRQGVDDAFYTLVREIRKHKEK

Usually IC50 stands for the concentration needed to halve the response being measured. Read a high IC50 as a need for much substance. As for `CCc1c(F)ccc2cc(O)cc(-c3ncc4c(N5CC(CC(=O)N(C)C(C)=O)C5)nc(OC[C@@]56CCCN5C[C@H](F)C6)nc4c3F)c12` [Example 276, N-acetyl-2-(1-(7-(8-ethyl-7-fluoro-3-hydroxynaphthalen-1-yl)-8-fluoro-2-(((2R,7aS)-2-fluorotetrahydro-1H-pyrrolizin-7a(5H)-yl)methoxy)pyrido[4,3-d]pyrimidin-4-yl)azetidin-3-yl)-N-methylacetamide], the IC50 in assay [1] was 101 nM; in assay [2], 1480 nM; in assay [3], 1030 nM; at KRas G12S, 68 nM; at KRas G12C, 129 nM; on KRas WT, 148 nM.
As for `COC(=O)C1CCN(c2nc(OC[C@@]34CCCN3C[C@H](F)C4)nc3c(F)c(-c4ccc(F)c5sc(N)c(C#N)c45)c(Cl)cc23)CC1` [Example 286, Methyl 1-(7-(2-amino-3-cyano-7-fluorobenzo[b]thiophen-4-yl)-6-chloro-8-fluoro-2-(((2R,7aS)-2-fluorotetrahydro-1H-pyrrolizin-7a(5H)-yl)methoxy)quinazolin-4-yl)piperidine-4-carboxylate], the IC50 in assay [1] came to 237 nM; in assay [2], 106 nM; in assay [3] it was 24 nM; at KRas G12S it was 15 nM; on KRas G12C, 11 nM; on KRas WT, 6 nM.
Consider `CN(CCCC(=O)Oc1c(F)cccc1F)c1nc(OC[C@@]23CCCN2C[C@H](F)C3)nc2c(F)c(-c3ccc(F)c4sc(N)c(C#N)c34)c(Cl)cc12` [Example 265, 2,6-difluorophenyl 4-((7-(2-amino-3-cyano-7-fluorobenzo[b]thiophen-4-yl)-6-chloro-8-fluoro-2-(((2R,7aS)-2-fluorotetrahydro-1H-pyrrolizin-7a(5H)-yl)methoxy)quinazolin-4-yl)(methyl)amino)butanoate], for which the concentration for half-maximal inhibition (IC50) in assay [1] was 271 nM; in assay [2], 370 nM; in assay [3], 844 nM; at KRas G12S, 12 nM; at KRas G12C it was 3 nM; at KRas WT, 35 nM.
Regarding `CCc1c(F)ccc2cc(O)cc(N3CCc4c(nc(OC[C@@]56CCCN5C[C@H](F)C6)nc4N4CCCC(C(=O)n5ccc(C)n5)CC4)C3)c12` (stereo partly drawn) [Example 145, (1-(7-(8-ethyl-7-fluoro-3-hydroxynaphthalen-1-yl)-2-(((2R,7aS)-2-fluorotetrahydro-1H-pyrrolizin-7a(5H)-yl)methoxy)-5,6,7,8-tetrahydropyrido[3,4-d]pyrimidin-4-yl)azepan-4-yl)(3-methyl-1H-pyrazol-1-yl)methanone], the IC50 in assay [1] worked out at 137 nM; in assay [2] it was 2810 nM; in assay [3] it was 4010 nM; at KRas G12S, 27 nM; on KRas G12C it was 237 nM; on KRas WT, 331 nM.
Consider `CCc1c(F)ccc2cc(O)cc(-c3ncc4c(N5CCCN(C(=O)n6ccc(C)n6)CC5)nc(OC[C@@]56CCCN5C[C@H](F)C6)nc4c3F)c12` [Example 69, (4-(7-(8-ethyl-7-fluoro-3-hydroxynaphthalen-1-yl)-8-fluoro-2-(((2R,7aS)-2-fluorotetrahydro-1H-pyrrolizin-7a(5H)-yl)methoxy)pyrido[4,3-d]pyrimidin-4-yl)-1,4-diazepan-1-yl)(3-methyl-1H-pyrazol-1-yl)methanone], for which the concentration for half-maximal inhibition (IC50) in assay [1] came out at 4810 nM; in assay [2], 1120 nM; in assay [3], 31 nM; on KRas G12S it was 124 nM; at KRas G12C, 79 nM; at KRas WT, 6 nM.
For `CN(CCCC(=O)N(C)c1cccnc1)c1nc(OC[C@@]23CCCN2C[C@H](F)C3)nc2c(F)c(-c3ccc(F)c4sc(N)c(C#N)c34)c(Cl)cc12` [Example 266, 4-((7-(2-amino-3-cyano-7-fluorobenzo[b]thiophen-4-yl)-6-chloro-8-fluoro-2-(((2R,7aS)-2-fluorotetrahydro-1H-pyrrolizin-7a(5H)-yl)methoxy)quinazolin-4-yl)(methyl)amino)-N-methyl-N-(pyridin-3-yl) butanamide], the IC50 turned out to be 410 nM in assay [1]; 58 nM in assay [2]; 236 nM in assay [3]; 9 nM on KRas G12S; 5 nM at KRas G12C; 10 nM on KRas WT.
With `CCc1c(F)ccc2cc(O)cc(-c3ncc4c(N5CCC(C(=O)n6cccn6)CC5)nc(OC[C@@]56CCCN5C[C@H](F)C6)nc4c3F)c12` [Example 4, (1-(7-(8-ethyl-7-fluoro-3-hydroxynaphthalen-1-yl)-8-fluoro-2-(((2R,7aS)-2-fluorotetrahydro-1H-pyrrolizin-7a(5H)-yl)methoxy)pyrido[4,3-d]pyrimidin-4-yl)piperidin-4-yl)(1H-pyrazol-1-yl)methanone], the 50% inhibitory concentration (IC50) came out at 69 nM in assay [1]; 5440 nM in assay [2]; 2040 nM in assay [3]; 9 nM on KRas G12S; 22 nM on KRas G12C; 51 nM at KRas WT.
Turning to `N#Cc1c(N)sc2c(F)ccc(-c3c(C(F)(F)F)cc4c(N5CCC(C(=O)Oc6ccccc6)CC5)nc(OC[C@@]56CCCN5C[C@H](F)C6)nc4c3F)c12` [Example 295, phenyl 1-(7-(2-amino-3-cyano-7-fluorobenzo[b]thiophen-4-yl)-8-fluoro-2-(((2R,7aS)-2-fluorotetrahydro-1H-pyrrolizin-7a(5H)-yl)methoxy)-6-(trifluoromethyl)quinazolin-4-yl)piperidine-4-carboxylate], the IC50 was determined as 14 nM in assay [1]; 5 nM in assay [2]; 56 nM in assay [3]; 12 nM at KRas G12S; 11 nM at KRas G12C; 44 nM on KRas WT.
Consider `Cc1ccn(C(=O)[C@@H]2CCCN(c3nc(OC[C@@]45CCCN4C[C@H](F)C5)nc4c(F)c(-c5ccc(F)c6sc(N)c(C#N)c56)c(Cl)cc34)CC2)n1` (atropisomer, axis not shown; (aS)) [Example 172, 2-amino-4-((S)-6-chloro-8-fluoro-2-(((2R,7aS)-2-fluorotetrahydro-1H-pyrrolizin-7a(5H)-yl)methoxy)-4-((R)-4-(3-methyl-1H-pyrazole-1-carbonyl)azepan-1-yl)quinazolin-7-yl)-7-fluorobenzo[b]thiophene-3-carbonitrile], for which the 50% inhibitory concentration (IC50) was 35 nM in assay [1], 50 nM in assay [2] and 199 nM in assay [3].
For the compound `CCc1c(F)ccc2cc(O)cc(-c3ncc4c(N5CCC(C(=O)n6ccc(C)n6)C5)nc(OC[C@@]56CCCN5C[C@H](F)C6)nc4c3F)c12` (stereo partly drawn) [Example 56, (1-(7-(8-ethyl-7-fluoro-3-hydroxynaphthalen-1-yl)-8-fluoro-2-(((2R,7aS)-2-fluorotetrahydro-1H-pyrrolizin-7a(5H)-yl)methoxy)pyrido[4,3-d]pyrimidin-4-yl)pyrrolidin-3-yl)(3-methyl-1H -pyrazol-1-yl)methanone], the IC50 in assay [1] stood at 66 nM; in assay [2], 2800 nM; on KRas G12S, 17 nM; on KRas G12C, 13 nM; on KRas WT, 69 nM.
For the compound `CCc1c(F)ccc2cc(O)cc(-c3ncc4c(N5CC[C@H]6[C@@H](C5)[C@H]6C(=O)n5ccc(C)n5)nc(OC[C@@]56CCCN5C[C@H](F)C6)nc4c3F)c12` [Example 156, ((1R,6S,7S)-3-(7-(8-ethyl-7-fluoro-3-hydroxynaphthalen-1-yl)-8-fluoro-2-(((2R,7aS)-2-fluorotetrahydro-1H-pyrrolizin-7a(5H)-yl)methoxy)pyrido[4,3-d]pyrimidin-4-yl)-3-azabicyclo[4.1.0]heptan-7-yl)(3-methyl-1H-pyrazol-1-yl)methanone], the IC50 in assay [1] was 38 nM; in assay [2], 2350 nM; in assay [3], 2090 nM; on KRas G12S, 15 nM; at KRas G12C, 89 nM.
Consider `CCc1c(F)ccc2cc(O)cc(-c3ncc4c(N5CCC(C(=O)N(C)c6ccccn6)CC5)nc(OC[C@@]56CCCN5C[C@H](F)C6)nc4c3F)c12` [Example 62, 1-(7-(8-ethyl-7-fluoro-3-hydroxynaphthalen-1-yl)-8-fluoro-2-(((2R,7aS)-2-fluorotetrahydro-1H-pyrrolizin-7a(5H)-yl)methoxy)pyrido[4,3-d]pyrimidin-4-yl)-N-methyl-N-(pyridin-2-yl)piperidine-4-carboxamide], for which the IC50 in assay [1] came to 7060 nM; in assay [2] it was 8390 nM; at KRas G12S it was 6330 nM; at KRas G12C, 619 nM; at KRas WT, 64 nM.
As for `CCc1c(F)ccc2cc(O)cc(-c3ncc4c(N5CCC(C(=O)Oc6ccc(F)c(F)c6)CC5)nc(OC[C@@]56CCCN5C[C@H](F)C6)nc4c3F)c12` [Example 40, 3,4-difluorophenyl 1-(7-(8-ethyl-7-fluoro-3-hydroxynaphthalen-1-yl)-8-fluoro-2-(((2R,7aS)-2-fluorotetrahydro-1H-pyrrolizin-7a(5H)-yl)methoxy)pyrido[4,3-d]pyrimidin-4-yl)piperidine-4-carboxylate], the IC50 in assay [1] was above 10000 nM; in assay [2] it was 913 nM; on KRas G12S, 1250 nM; on KRas G12C, 9 nM; on KRas WT, 729 nM.
